Laboratory results: ChEMBL document CHEMBL5233283, “Indole derivatives as tubulin polymerization inhibitors for the development of promising anticancer agents” (Bioorg Med Chem, 2021)

Assays:
[1] = test system: KB; assay: Cytotoxicity against human KB cells assessed as cell growth inhibition; assay type: functional, cell-based
[2] = test system: MKN-45; assay: Cytotoxicity against human MKN-45 cells assessed as cell growth inhibition; assay type: functional, cell-based
[3] = test system: NCI-H460; assay: Cytotoxicity against human NCI-H460 cells assessed as cell growth inhibition; assay type: functional, cell-based
[4] = test system: HT-29; assay: Cytotoxicity against human HT-29 cells assessed as inhibition of cell growth; assay type: functional, cell-based
[5] = test system: MDA-MB-231; assay: Cytotoxicity against human MDA-MB-231 cells assessed as inhibition of cell growth; assay type: functional, cell-based
[6] = test system: MCF7; assay: Cytotoxicity against human MCF7 cells assessed as inhibition of cell growth; assay type: functional, cell-based
[7] = test system: A549; assay: cells; conditions: Homo sapiens
Description: Cytotoxicity against human A549 cells assessed as inhibition of cell growth

[8] = test system: HepG2; assay: Cytotoxicity against human HepG2 cells assessed as inhibition of cell growth; assay type: functional, cell-based
[9] = test system: HeLa; assay: Cytotoxicity against human HeLa cells assessed as inhibition of cell growth; assay type: functional, cell-based
[10] = Cytotoxicity against human […] cells assessed as inhibition of cell growth; assay type: functional, cell-based
[11] = test system: HCT-116; assay: Cytotoxicity against human HCT-116 cells assessed as inhibition of cell growth; assay type: functional, cell-based
[12] = test system: Ishikawa; assay: Cytotoxicity against human Ishikawa cells assessed as inhibition of cell growth; assay type: functional, cell-based
[13] = test system: NCI/ADR-RES; assay: Cytotoxicity against human NCI-ADR-RES cells assessed as inhibition of cell growth; assay type: functional, cell-based
[14] = Cytotoxicity against human CL1-5 cells assessed as inhibition of cell growth; assay type: functional, cell-based
[15] = test system: PC-3; assay: Cytotoxicity against human PC-3 cells assessed as inhibition of cell growth; assay type: functional, cell-based
[16] = test system: AGS; assay: Cytotoxicity against human AGS cells assessed as inhibition of cell growth; assay type: functional, cell-based
[17] = test system: SH-SY5Y; assay: Cytotoxicity against human SH-SY5Y cells assessed as cell growth inhibition; assay type: functional, cell-based
[18] = Cytotoxicity against human Neural progenitor cells assessed as cell growth inhibition; assay type: functional, cell-based
[19] = Cytotoxicity against human SCC-29B cells assessed as inhibition of cell growth; assay type: functional
[20] = test system: B16-F10; assay: Cytotoxicity against mouse B16-F10 cells assessed as cell growth inhibition; assay type: functional, cell-based
[21] = test system: PA-1; assay: Cytotoxicity against human PA-1 cells assessed as inhibition of cell growth; assay type: functional, cell-based
[22] = test system: RKO; assay: Cytotoxicity against human RKO cells assessed as inhibition of cell growth; assay type: functional, cell-based

Row | Structure (SMILES) | IC50 [7] [µM] | IC50 [6] [µM] | IC50 [8] [µM] | IC50 [9] [µM] | also measured
1 | COc1ccc(-n2ccc3cc(OC)c(OC)c(OC)c32)cc1O |  |  |  |  | IC50 [1]: 0.0137 µM; IC50 [2]: 0.0111 µM; IC50 [3]: 0.0129 µM; IC50 [4]: 0.0102 µM
2 | O=C1Nc2cc(Cl)ccc2/C1=C\c1c(-c2ccc(F)cc2)nc2ccccn12 |  |  |  |  | GI50 [5]: 0.95 µM; GI50 [6]: 0.43 µM
3 | N#Cc1c(-c2ccc(F)cc2Cl)cc(-c2c[nH]c3ccccc23)n2ccnc12 | 0.57 |  |  |  | IC50 [2]: 0.14 µM; IC50 [3]: 0.05 µM; IC50 [4]: 0.02 µM
4 | O=C(N/N=C/c1ccc(C(F)(F)F)cc1)c1[nH]c2ccc(Cl)cc2c1-c1ccccc1 |  | 0.42 |  |  | 
5 | COc1cc(C2=CN(C(N)=O)C(c3cn(C)c4ccc(Br)cc34)C2)cc(OC)c1OC (stereo unspecified) | 0.26 | 0.29 | 0.31 | 0.21 | 
6 | COc1cc(/C=N/NC(=O)c2cn(Cc3ccccc3)c3ccccc23)cc(OC)c1OC | 0.08 | 0.64 | 0.63 |  | IC50 [10]: 35.6 µM
7 | COc1cc(/C=C/c2ncc([N+](=O)[O-])n2CCOC(=O)c2c[nH]c3ccccc23)cc(OC)c1OC | 0.035 | 0.03 | 0.04 |  | 
8 | Oc1cccc(-n2cc(CSc3c[nH]c4ccccc34)nn2)c1 |  | 2.37 |  |  | 
9 | COc1ccc(C(=O)/C=C/c2ccc3c(ccn3C)c2)c2ccccc12 |  | 0.82 | 0.65 |  | IC50 [11]: 1.13 µM
10 | COC(=O)c1[nH]c2cc(OC)ccc2c1/C=C/C(=O)c1cc(OC)c(OC)c(OC)c1 |  | 0.17 |  | 0.37 | IC50 [4]: 0.16 µM
11 | COC(=O)c1c(Nc2cc(OC)c(OC)c(OC)c2)c2ccc(OC)cc2n1C |  | 0.11 |  | 0.11 | IC50 [4]: 0.11 µM
12 | O=C(CC#Cc1ccccc1)Oc1ccc2[nH]ccc2c1 |  | 3.8 |  | 3.2 | IC50 [5]: 9.9 µM; IC50 [12]: 10.1 µM
13 | COc1ccc(S(=O)(=O)Nc2cccc3cc(-c4ccccc4)[nH]c23)cc1 | 1.43 |  |  | 0.2 | IC50 [13]: 0.15 µM; IC50 [14]: 0.45 µM; IC50 [15]: 0.11 µM; IC50 [16]: 0.25 µM; IC50 [4]: 0.13 µM
14 | COC(=O)c1[nH]c2ccc(OC)cc2c1Nc1cc(OC)c(OC)c(OC)c1 |  | 0.11 |  | 0.11 | IC50 [4]: 0.11 µM
15 | CC(=O)c1ccc(C2=C(c3c(C)[nH]c4ccccc34)C(=O)N(C)C2=O)cc1 | 4.97 |  |  |  | IC50 [17]: 8.48 µM; IC50 [18]: 1.31 µM
16 | O=C(O)c1cccc(-n2cc(CSc3c[nH]c4ccccc34)nn2)c1 |  | 3.52 |  |  | 
17 | COc1ccc(C(=O)/C=C/c2cn(C)c3ccc(C(=O)c4cc(OC)c(OC)c(OC)c4)cc23)cc1OC |  |  |  |  | GI50 [19]: 0.96 µM
18 | O=C(CC(c1ccc(F)cc1)c1c(-c2ccccc2)[nH]c2ccccc12)c1ccccc1 (stereo unspecified) |  | 10 |  |  | IC50 [20]: 10 µM
19 | N#Cc1ccc(/C=N/NC(=O)c2[nH]c3ccc(Cl)cc3c2-c2ccccc2)cc1 |  | 0.17 |  |  | 
20 | COc1cc(CSc2nnc(-c3cn(C)c4ccccc34)n2-c2ccccc2)cc(OC)c1OC | 0.3 | 0.38 | 0.3 | 0.15 | 
21 | O=C(N/N=C/c1c[nH]c2ccccc12)c1c[nH]c2ccccc12 |  | 5.25 | 29.7 | 1.5 | IC50 [21]: 24.7 µM; IC50 [5]: 8 µM
22 | O=C(CC(c1ccccc1)c1c(-c2ccccc2)[nH]c2ccccc12)c1ccc(F)cc1 (stereo unspecified) |  | 10 |  |  | IC50 [20]: 10 µM
23 | COc1cc(C(=O)c2cccc3[nH]ccc23)cc([Se]C)c1OC | 0.004 |  | 0.004 | 0.004 | IC50 [11]: 0.004 µM; IC50 [22]: 0.004 µM; IC50 [5]: 0.004 µM
